Measurements taken from US9382197B2, “Substituted hydroxamic acids and uses thereof” (Millennium Pharmaceuticals, Inc., priority 2010, dated 2016).

Target: T1, purified human HDAC6 (Homo sapiens, UniProt Q9UBN7)
T1 construct: purchased BPS Bioscience 5006
T1 sequence (Q9UBN7 1-1215): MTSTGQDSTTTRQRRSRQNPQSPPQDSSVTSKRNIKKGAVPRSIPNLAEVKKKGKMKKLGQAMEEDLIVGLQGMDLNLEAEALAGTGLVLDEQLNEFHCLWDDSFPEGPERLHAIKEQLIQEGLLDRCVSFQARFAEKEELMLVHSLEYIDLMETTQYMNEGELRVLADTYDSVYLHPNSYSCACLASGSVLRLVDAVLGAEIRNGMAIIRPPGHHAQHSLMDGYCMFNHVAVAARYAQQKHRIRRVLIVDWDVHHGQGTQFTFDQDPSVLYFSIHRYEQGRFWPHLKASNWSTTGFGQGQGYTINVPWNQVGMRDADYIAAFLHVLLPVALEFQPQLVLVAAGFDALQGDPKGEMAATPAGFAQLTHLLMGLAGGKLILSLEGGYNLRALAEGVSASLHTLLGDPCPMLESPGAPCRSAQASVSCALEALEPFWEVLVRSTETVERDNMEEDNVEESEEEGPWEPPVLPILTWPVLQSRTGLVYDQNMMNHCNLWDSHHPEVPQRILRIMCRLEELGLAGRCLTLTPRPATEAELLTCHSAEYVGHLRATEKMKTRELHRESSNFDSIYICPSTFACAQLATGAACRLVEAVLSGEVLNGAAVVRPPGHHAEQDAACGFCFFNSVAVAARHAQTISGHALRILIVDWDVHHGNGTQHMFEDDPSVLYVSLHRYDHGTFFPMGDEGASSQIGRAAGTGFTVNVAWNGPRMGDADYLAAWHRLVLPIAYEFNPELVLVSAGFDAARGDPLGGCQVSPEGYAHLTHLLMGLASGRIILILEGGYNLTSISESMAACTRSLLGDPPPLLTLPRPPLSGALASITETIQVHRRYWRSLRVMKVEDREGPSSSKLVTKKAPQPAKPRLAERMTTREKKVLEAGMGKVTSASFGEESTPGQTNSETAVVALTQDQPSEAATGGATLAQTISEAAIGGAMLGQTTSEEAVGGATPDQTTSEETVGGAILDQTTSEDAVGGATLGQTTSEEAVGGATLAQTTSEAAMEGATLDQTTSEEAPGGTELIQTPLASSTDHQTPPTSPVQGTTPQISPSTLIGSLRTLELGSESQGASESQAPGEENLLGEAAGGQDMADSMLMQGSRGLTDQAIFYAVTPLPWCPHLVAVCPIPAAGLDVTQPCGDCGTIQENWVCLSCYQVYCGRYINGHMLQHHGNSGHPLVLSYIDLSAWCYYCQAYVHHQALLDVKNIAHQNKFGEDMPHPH
Test: HDAC6 Enzyme Assay
Assay type: biochemical
Procedure: To measure the inhibition of HDAC6 activity, purified human HDAC6 (BPS Bioscience; Cat. No. 5006) is incubated with substrate Ac-Arg-Gly-Lys(Ac)-AMC peptide (Bachem Biosciences; Cat. No. 1-1925) for 1 hour at 30° C. in the presence of test compounds or vehicle DMSO control. The reaction is stopped with the HDAC inhibitor trichostatin A (Sigma; Cat. No. T8552) and the amount of Arg-Gly-Lys-AMC generated is quantitated by digestion with trypsin (Sigma; Cat. No. T1426) and subsequent measurement of the amount of AMC released using a fluorescent plate reader (Pherastar; BMG Technologies) set at Ex 340 nm and Em 460 nm. Concentration response curves are generated by calculating the fluorescence increase in test compound-treated samples relative to DMSO-treated controls, and enzyme inhibition (IC50) values are determined from those curves.

[1] = purified human HDAC6, substrate Ac-Arg-Gly-Lys(Ac)-AMC, 1 hour at 30° C., reported as bins
[2] = bin: greater than 500 nM and less than 1 μM (lower bound in nM, upper bound in μM)

| Compound | IC50 [1] | further results |
| --- | --- | --- |
| O=C(NO)c1ccc([C@H](NC(=O)C23CC4CC(CC(C4)C2)C3)C2CC2)cc1 [Compound I-46, N-((R)-cyclopropyl{4-[(hydroxyamino)carbonyl]phenyl}methyl)adamantane-1-carboxamide] | 100 to 500 nM | – |
| CC(NC(=O)c1c2c(nn1C)CCCC2)c1ccc(C(=O)NO)cc1 (centres unmarked) [Compound I-114, N-(1-{4-[(hydroxyamino)carbonyl]phenyl}ethyl)-2-methyl-4,5,6,7-tetrahydro-2H-indazole-3-carboxamide] | 100 to 500 nM | – |
| CC(NC(=O)Nc1cccc2nsnc12)c1ccc(C(=O)NO)cc1 (centres unmarked) [Compound I-293, 4-(1-{[(2,1,3-benzothiadiazol-4-ylamino)carbonyl]amino}ethyl)-N-hydroxybenzamide] | < 100 nM | – |
| CC(NC(=O)c1ccn(C)n1)c1cccc(C(=O)NO)c1 (centres unmarked) [Compound I-81, N-(1-{3-[(hydroxyamino)carbonyl]phenyl}ethyl)-1-methyl-1H-pyrazole-3-carboxamide] | – | IC50 [2]: 500 to 1000 nM |
| Cc1cccc(C)c1NC(=O)NC(C)c1ccc(C(=O)NO)cc1 (centres unmarked) [Compound I-156, 4-[1-({[(2,6-dimethylphenyl)amino]carbonyl}amino)ethyl]-N-hydroxybenzamide] | 100 to 500 nM | – |
| Cc1ccc(C(=O)NC(C)c2ccc(C(=O)NO)cc2)s1 (centres unmarked) [Compound I-147, N-(1-{4-[(hydroxyamino)carbonyl]phenyl}ethyl)-5-methylthiophene-2-carboxamide] | < 100 nM | – |
| CC(C)Oc1ccc(C(=O)NC(C)c2ccc(C(=O)NO)cc2)cc1 (centres unmarked) [Compound I-38, N-(1-{4-[(hydroxyamino)carbonyl]phenyl}ethyl)-4-isopropoxybenzamide] | < 100 nM | – |
| Cn1cc(C(=O)NC(c2ccc(C(=O)NO)cc2)C(C)(C)C)c2ccccc21 (centres unmarked) [Compound I-107, N-(1-{4-[(hydroxyamino)carbonyl]phenyl}-2,2-dimethylpropyl)-1-methyl-1H-indole-3-carboxamide] | < 100 nM | – |
| C[C@@H](NC(=O)C(C)(C)C)c1ccc(C(=O)NO)cc1 [Compound I-73, 4-{(1R)-1-[(2,2-dimethylpropanoyl)amino]ethyl}-N-hydroxybenzamide] | < 100 nM | – |
| Cc1ccccc1CNC(=O)NC(C)c1ccc(C(=O)NO)cc1 (centres unmarked) [Compound I-76, N-hydroxy-4-[1-({[(2-methylbenzyl)amino]carbonyl}amino)ethyl]benzamide] | 100 to 500 nM | – |
| Cn1c(C(=O)N[C@@H](c2ccc(C(=O)NO)cc2)C(F)(F)F)cc2oc(-c3ccccc3)cc21 [Compound I-231, 4-methyl-2-phenyl-N-((1S)-2,2,2-trifluoro-1-{4-[(hydroxyamino)carbonyl]phenyl}ethyl)-4H-furo[3,2-b]pyrrole-5-carboxamide] | – | IC50 (bin: greater than 1 μM): > 1000 nM |
| CC(NC(=O)C1CCCCC1)c1cccc(C(=O)NO)c1 (centres unmarked) [Compound I-149, 3-{1-[(cyclohexylcarbonyl)amino]ethyl}-N-hydroxybenzamide] | – | IC50 (bin: greater than 1 μM): > 1000 nM |
| Cc1ccc(NC(=O)NC(C)c2ccc(C(=O)NO)cc2)cc1C (centres unmarked) [Compound I-55, 4-[1-({[(3,4-dimethylphenyl)amino]carbonyl}amino)ethyl]-N-hydroxybenzamide] | < 100 nM | – |
| CC(C)[C@@H](NC(=O)C(C)(C)C)c1ccc(C(=O)NO)cc1 [Compound I-287, 4-{(1R)-1-[(2,2-dimethylpropanoyl)amino]-2-methylpropyl}-N-hydroxybenzamide] | < 100 nM | – |
| CC(C)(C)C(NC(=O)c1cc2ccccc2s1)c1ccc(C(=O)NO)cc1 (centres unmarked) [Compound I-308, N-(1-{4-[(hydroxyamino)carbonyl]phenyl}-2,2-dimethylpropyl)-1-benzothiophene-2-carboxamide] | < 100 nM | – |
| C[C@@H](NC(=O)NC12CC3CC(CC(C3)C1)C2)c1cccc(C(=O)NO)c1 [Compound I-343, 3-[(1R)-1-({[1-adamantylamino]carbonyl}amino)ethyl]-N-hydroxybenzamide] | – | IC50 (bin: greater than 1 μM): > 1000 nM |

| Compound | IC50 [1] | further results |
| --- | --- | --- |
| CC(C)C(NC(=O)c1cccs1)c1ccc(C(=O)NO)cc1 (centres unmarked) [Compound I-112, N-(1-{4-[(hydroxyamino)carbonyl]phenyl}-2-methylpropyl)thiophene-2-carboxamide] | < 100 nM | – |
| Cc1[nH]c2c(C)ccc(C)c2c1CC(=O)NC(c1ccc(C(=O)NO)cc1)C(C)C (centres unmarked) [Compound I-220, N-hydroxy-4-(2-methyl-1-{[(2,4,7-trimethyl-1H-indol-3-yl)acetyl]amino}propyl)benzamide] | 100 to 500 nM | – |
| CC(C)C(NC(=O)c1ccc2ncsc2c1)c1ccc(C(=O)NO)cc1 (centres unmarked) [Compound I-43, N-(1-{4-[(hydroxyamino)carbonyl]phenyl}-2-methylpropyl)-1,3-benzothiazole-6-carboxamide] | 100 to 500 nM | – |
| CC(NS(=O)(=O)c1ccc(C(F)(F)F)cc1)c1ccc(C(=O)NO)cc1 (centres unmarked) [Compound I-488, N-hydroxy-4-[1-({[4-(trifluoromethyl)phenyl]sulfonyl}amino)ethyl]benzamide] | 100 to 500 nM | IC50 (bin: greater than 1 μM): > 1000 nM |
| C[C@@H](NC(=O)c1cc(Cl)c(Cl)n1C)c1cccc(C(=O)NO)c1 [Compound I-301, 4,5-dichloro-N-((1R)-1-{3-[(hydroxyamino)carbonyl]phenyl}ethyl)-1-methyl-1H-pyrrole-2-carboxamide] | 100 to 500 nM | – |
| C[C@@H](NC(=O)c1cc2ccccc2s1)c1cccc(C(=O)NO)c1 [Compound I-321, N-((1R)-1-{3-[(hydroxyamino)carbonyl]phenyl}ethyl)-1-benzothiophene-2-carboxamide] | < 100 nM | – |
| COc1ccc(C)cc1NC(=O)NC(C)c1ccc(C(=O)NO)cc1 (centres unmarked) [Compound I-253, N-hydroxy-4-[1-({[(2-methoxy-5-methylphenyl)amino]carbonyl}amino)ethyl]benzamide] | < 100 nM | – |
| CC(NC(=O)c1csc2ccccc12)c1cccc(C(=O)NO)c1 (centres unmarked) [Compound I-117, N-(1-{3-[(hydroxyamino)carbonyl]phenyl}ethyl)-1-benzothiophene-3-carboxamide] | 100 to 500 nM | – |
| CC(NC(=O)Cc1c(F)cccc1Cl)c1ccc(C(=O)NO)cc1 (centres unmarked) [Compound I-24, 4-(1-{[(2-chloro-6-fluorophenyl)acetyl]amino}ethyl)-N-hydroxybenzamide] | – | IC50 (bin: greater than 1 μM): > 1000 nM |
| COc1cccc(C(=O)NC(C)c2ccc(C(=O)NO)cc2)c1 (centres unmarked) [Compound I-225, N-(1-{4-[(hydroxyamino)carbonyl]phenyl}ethyl)-3-methoxybenzamide] | < 100 nM | – |
| CC(NC(=O)Nc1ccc(OC(F)F)cc1)c1ccc(C(=O)NO)cc1 (centres unmarked) [Compound I-150, 4-{1-[({[4-(difluoromethoxy)phenyl]amino}carbonyl)amino]ethyl}-N-hydroxybenzamide] | < 100 nM | – |
| Cc1nc(-c2ccccc2)ncc1C(=O)NC(c1ccc(C(=O)NO)cc1)C(C)C (centres unmarked) [Compound I-17, N-(1-{4-[(hydroxyamino)carbonyl]phenyl}-2-methylpropyl)-4-methyl-2-phenylpyrimidine-5-carboxamide] | 100 to 500 nM | – |
| CC(NC(=O)Cc1csc2ccc(Cl)cc12)c1cccc(C(=O)NO)c1 (centres unmarked) [Compound I-13, 3-(1-{[(5-chloro-1-benzothien-3-yl)acetyl]amino}ethyl)-N-hydroxybenzamide] | – | IC50 [2]: 500 to 1000 nM |
| CC(NC(=O)c1ccc(-c2cnco2)cc1)c1ccc(C(=O)NO)cc1 (centres unmarked) [Compound I-138, N-(1-{4-[(hydroxyamino)carbonyl]phenyl}ethyl)-4-(1,3-oxazol-5-yl)benzamide] | < 100 nM | – |
| CC(C)C(NC(=O)c1cc2cc(Cl)ccc2o1)c1ccc(C(=O)NO)cc1 (centres unmarked) [Compound I-130, 5-chloro-N-(1-{4-[(hydroxyamino)carbonyl]phenyl}-2-methylpropyl)-1-benzofuran-2-carboxamide] | < 100 nM | – |
